In patent US11058654B2, “Compositions and methods for the treatment of hemoglobinopathies and thalassemias” (AXCELLA HEALTH INC., priority 2018, dated 2021):
Blank lines part the entries; values can stand above or below the compound they belong to.

Columns and labels:
TNFa = test: LPS-induced TNFa secretion in primary human PBMC-derived macrophages (ELISA); assay type: cell-based; conditions: for effect on LPS-induced TNFa secretion: in words; for TNFa Measurements Mean (baseline subtracted): LPS
Method: (§1) Unpurified buffy coats (Research Blood Components) were carefully poured into 50 mL centrifuge tubes and diluted with room temperature Dulbecco's Phosphate Buffered Saline (dPBS) with Calcium and Magnesium (Gibco). Diluted buffy coats were further divided into four total 50 mL centrifuge tubes at 20 mL per tube. Lymphocyte Separation Medium (Corning) was carefully pipetted to the bottom of each centrifuge tube. Mixtures were centrifuged at 850× g for 32 minutes at 20° C. with 0 deceleration and acceleration.
(§2) The PBMC layer was separated from other components after centrifugation and added to new 50 mL centrifuge tube containing 25 mL dPBS. Total volume was brought up to 50 mL with dPBS and centrifuged at 600× g for 10 minutes at 20° C. with acceleration of 9, deceleration of 5. Supernatant was carefully removed from cell pellets. The cell pellets were resuspended using 10 mL dPBS. Total volume was then brought up to 50 mL using dPBS and centrifuged at 450× g for 5 min at 20° C. with acceleration of 9, deceleration of 9. The supernatant removal and cell pellet resuspension was repeated again.
(§3) The supernatant was then carefully removed from cell pellets. Cell pellets were resuspended in 10 mL dPBS without calcium or magnesium and filtered through a 70 uM cell strainer. The total PBMC number was determined using a Cellometer K2 automated cell counter. A total of 5E6 cells were saved for flow cytometric analysis. Remaining cells were centrifuged at 490× g for 5 minutes at 20° C. with acceleration of 9, deceleration of 9.
(§4) CD14+ cells were selected using EasySep™ Human CD14 Positive Selection Kit II ([…] Technologies). Cells were resuspended in cold EasySep™ Buffer ([…] Technologies) at 1×10^8 cells/mL. A total of 100 uL/mL EasySep™ Human CD14 Positive Selection Cocktail II was added to the cell suspension, mixed, and incubated at room temperature for 10 minutes. A total of 100 uL/mL RapidSpheres were added to the mixture and incubated at room temperature for 3 minutes after mixing, then RoboSep buffer was added to bring up the total volume to 10 mL. The mixture in a 15 mL tube was placed in magnet and incubated at room temperature for 3 minutes. Supernatant was discarded and 10 mL fresh EasySep™ buffer was added to 15 mL tube. The addition of RoboSep buffer, mixing, and discarding of supernatant was repeated two more times.
(§5) Negative and positive fractions were centrifuged at 490× g for 5 minutes at 20° C. with acceleration of 9, deceleration of 9, and resuspended in DMEM (Gibco) and 10% Heat Inactivated Fetal Bovine Serum (Atlanta Bio) and Penicillin/Streptomycin. Cells were counted and centrifuged again at […] for 5 minutes at 20° C. with acceleration of 9, deceleration of 9. After centrifugation, cell were resuspended in DMEM (Gibco) and 10% Heat Inactivated Fetal Bovine Serum (Atlanta Bio) and Penicillin/Streptomycin containing 500 U/mL […] and plated at 1-2×10^6 cells/mL on 10 cm tissue culture plates. Cells were kept in 37° C., 5% CO2 in between feedings/harvest.
(§6) Cells were fed every 3-4 days by removing media and unattached cells, centrifuging at 490× g for 5 minutes at 20 C with acceleration of 9, deceleration of 9, and resuspending in fresh DMEM (Gibco) and 10% Heat Inactivated Fetal Bovine Serum (Atlanta Bio) and Penicillin/Streptomycin containing GM-CSF. Resuspended cells were seeded back onto 10 cm tissue culture plates and incubated at 37° C., 5% CO2. Differentiated macrophages were used for subsequent experiments.
(§7) Primary human PMBC derived macrophages were seeded on day 0 at 3.0E4 cells per well in 96-well microplates (ThermoFisher) in Dulbecco's Modified Eagle Medium (DMEM) (Gibco) supplemented with penicillin-streptomycin (Hyclone) and 10% heat inactivated fetal bovine serum (HI-FBS) (Atlanta Bio) and incubated overnight at 37° C., 5% CO2. On day 1, cells were washed once with 150 uL per well DPBS (Gibco) and treated with 75 uL of: • a. […]

IL-6 = test: LPS-induced IL-6 secretion in primary human PBMC-derived macrophages (ELISA); assay type: cell-based; conditions: for effect on LPS-induced IL-6 secretion: in words
Method: as §1, §2, §3, §4, §5, §6, §7

[1] = Plasma pharmacokinetics after oral gavage in male Sprague-Dawley rats; assay type: in vivo; parameters: AUC(0-t): concentration or dose not given beside the values; conditions: rat, plasma, Mean, oral gavage of RCitNacQCarLHKVS, male Sprague-Dawley rats; for AUC(0-t): read-out: AUC0-5 h; for Cmax: read-out: Cmax; for Tmax: read-out: Tmax
Method: A pharmacokinetic (PK) analysis was performed on plasma concentrations of various combinations of amino acid compounds administered by oral gavage to male Sprague-Dawley rats. Four animals were dosed with RCitNacQCarLHKVS, a test article comprising ten amino acid components: arginine, citrulline, N-acetylcysteine, glutamine, carnitine, leucine, histidine, lysine, valine, and serine (Table 19). Animals were fasted for 2 hours prior to dose administration. Plasma samples were taken immediately pre-dose and 0.5, 1, 2, 3, 4, and 5 hours post-dose.
Bioanalysis of collected plasma samples for amino acid content was performed at Axcella Health using an LC-MS method (Section 2.1). Bioanalytical data were analyzed using noncompartmental analysis with Phoenix® WinNonLin® (v8.1).
An LC/MS method utilizing HILIC chromatography and high-resolution mass spectrometry was used to quantify amino acids in rat plasma. The samples were prepared by protein precipitation and spiked with stable-labeled amino acid internal standard for each analyte. […] QCs, spiked into rat plasma, were utilized to assess the accuracy of the method.
PK parameters of test article components were determined from individual rat plasma concentration-time data by employing a noncompartmental approach using Phoenix WinNonlin® (Version 8.1) software. Nominal times were used to calculate the toxicokinetic parameters. […] This program analyzed data using the standard methods described by Gibaldi and Perrier (see M. Gibaldi and D. Perrier, Pharmacokinetics, 2nd edition, New York: Marcel-Dekker, Inc.; 1982.).

AUC(0-t) [1]: 2370 µM·h | Cmax [1]: 605 µM | Tmax [1]: 30 min
SMILES: NC(=O)CC[C@H](N)C(=O)O [Glutamine]
effect on LPS-induced TNFa secretion (TNFa; Donor 2): increased | effect on LPS-induced TNFa secretion (TNFa; Donor 3): increased | effect on LPS-induced IL-6 secretion (IL-6; Donor 1): increased | effect on LPS-induced IL-6 secretion (IL-6; Donor 2): increased | effect on LPS-induced IL-6 secretion (IL-6; Donor 3): significantly increased

SMILES: N=C(N)NCCC[C@H](N)C(=O)O [Arginine]
TNFa Measurements Mean (baseline subtracted) (TNFa; Donor 1, Conc. 109 μM (baseline)): 0 | TNFa Measurements Mean (baseline subtracted) (TNFa; Donor 1, Conc. 1088 μM): −24.33 | TNFa Measurements Mean (baseline subtracted) (TNFa; Donor 1, Conc. 2720 μM): 5.12 | TNFa Measurements Mean (baseline subtracted) (TNFa; Donor 1, Conc. 5440 μM): 62.06 | TNFa Measurements Mean (baseline subtracted) (TNFa; Donor 2, Conc. 109 μM (baseline)): 1.42E−14 | TNFa Measurements Mean (baseline subtracted) (TNFa; Donor 2, Conc. 1088 μM): −12.7222 | TNFa Measurements Mean (baseline subtracted) (TNFa; Donor 2, Conc. 2720 μM): −3.763 | TNFa Measurements Mean (baseline subtracted) (TNFa; Donor 2, Conc. 5440 μM): −0.5738 | TNFa Measurements Mean (baseline subtracted) (TNFa; Donor 3, Conc. 109 μM (baseline)): 3.55E−15 | TNFa Measurements Mean (baseline subtracted) (TNFa; Donor 3, Conc. 1088 μM): 3.131 | TNFa Measurements Mean (baseline subtracted) (TNFa; Donor 3, Conc. 2720 μM): −0.9669 | TNFa Measurements Mean (baseline subtracted) (TNFa; Donor 3, Conc. 5440 μM): −1.767 | IL-6 Measurements Mean (IL-6; Donor 1, Arginine Conc. 109 μM (baseline)): 0 | IL-6 Measurements Mean (IL-6; Donor 1, Arginine Conc. 1088 μM, baseline subtracted): −181.36 | IL-6 Measurements Mean (IL-6; Donor 1, Arginine Conc. 2720 μM, baseline subtracted): −186.57 | IL-6 Measurements Mean (IL-6; Donor 1, Arginine Conc. 5440 μM, baseline subtracted): 357.4394 | effect on LPS-induced IL-6 secretion (IL-6; Donor 1): increased | IL-6 Measurements Mean (IL-6; Donor 2, Arginine Conc. 109 μM (baseline)): 2.37E−15 | IL-6 Measurements Mean (IL-6; Donor 2, Arginine Conc. 1088 μM, baseline subtracted): −9.701 | IL-6 Measurements Mean (IL-6; Donor 2, Arginine Conc. 2720 μM, baseline subtracted): −13.6102 | IL-6 Measurements Mean (IL-6; Donor 2, Arginine Conc. 5440 μM, baseline subtracted): −12.4164 | IL-6 Measurements Mean (IL-6; Donor 3, Arginine Conc. 109 μM (baseline)): 0 | IL-6 Measurements Mean (IL-6; Donor 3, Arginine Conc. 1088 μM, baseline subtracted): 31.5786 | IL-6 Measurements Mean (IL-6; Donor 3, Arginine Conc. 2720 μM, baseline subtracted): −7.503 | IL-6 Measurements Mean (IL-6; Donor 3, Arginine Conc. 5440 μM, baseline subtracted): −6.81 | AUC(0-t) [1]: 2210 µM·h | Cmax [1]: 565 µM | Tmax [1]: 82.8 min

SMILES: CC(=O)N[C@@H](CS)C(=O)O [N-Acetyl Cysteine, N-acetylcysteine]
effect on LPS-induced TNFa secretion (TNFa; Donor 1): significantly reduced | effect on LPS-induced TNFa secretion (TNFa; Donor 2): significantly reduced | effect on LPS-induced TNFa secretion (TNFa; Donor 3): significantly reduced | IL-6 Measurements Mean (IL-6; Donor 1, Conc. 0 X (baseline)): 0 | effect on LPS-induced IL-6 secretion (IL-6; Donor 1): significantly reduced | IL-6 Measurements Mean (IL-6; Donor 2, Conc. 0 X (baseline)): −2.4E−15 | IL-6 Measurements Mean (IL-6; Donor 2, Conc. 20 X, baseline subtracted): −24.9999 | effect on LPS-induced IL-6 secretion (IL-6; Donor 2): significantly reduced | IL-6 Measurements Mean (IL-6; Donor 3, Conc. 0 X (baseline)): −9.5E−15 | effect on LPS-induced IL-6 secretion (IL-6; Donor 3): significantly reduced
